Results reported in US11850252B2, “Use of nor-ursodeoxycholic acid for reducing liver fat” (Dr. Falk Pharma GmbH, priority 2017, dated 2023).
Read-outs that look alike come from different tables or passages of the source.

Assays:
[1] = test system: Patients with a clinical diagnosis of non-alcoholic hepatic steatosis; experiment: Liver stiffness according to Fibroscan or ARFI, phase II clinical trial; type: in vivo, human
Protocol: (§1) A double-blinded, randomized, placebo-controlled phase II clinical trial was conducted as described in the following.
(§2) Patients with a clinical diagnosis of non-alcoholic hepatic steatosis were randomized to a 12-week treatment period and a 4-week follow-up. Patients were divided into three groups. The first groups received 1,500 mg Nor-UDCA per day (6 capsules with 250 mg Nor-UDCA in each capsule). The second group received 500 mg Nor-UDCA per day (2 capsules with 250 mg Nor-UDCA in each capsule and 4 capsules with 250 mg placebo in each capsule). The third group received 6 capsules with 250 mg placebo in each capsule.
A) If available, Fibroscan examinations were performed at V1 or within 4 weeks before and 1 week after V1 and at V6. For the purpose of this measurement, patients should be fasting.
Fibroscan is a non-invasive device (Echosens, France) for the detection steatosis hepatis by vibration-controlled transient elastography. It consists of a vibrator device coupled to an ultrasound system. The signal from this device allows a calculation of stiffness of scanned tissue, and thereby an assessment of the extent of disease. Results of liver elasticity are to be expressed by stiffness (kPa) and success rate (%).
During measurement, an ultrafast pulse echosequence is emitted (pulse repetition frequency of 6 kHz) during the propagation of the controlled shear wave. The acquisition lasts only 80 ms and strains induced in the liver by the propagation of the shear wave is measured using standard autocorrelation approach between successive ultrasound lines. Stiffness values were obtained in kPA.
Liver stiffness was measured using either of two probes (M-probe or XL-probe) and documented with the following respective thresholds for different stages:
Stage 0/1 (i.e. <stage 2): <7.0 kPa (threshold)
Stage 0/1 (i.e. <stage 2): <6.2 kPa (threshold)
B) If available, Acoustic radiation force impulse imaging (ARFI) examinations were performed at V1 or within 4 weeks before and 1 week after V1 and at V6. ARFI measurements were documented with the following thresholds for different stages:
Stage 0/1 (i.e. <stage 2): <1.34 m/s (threshold)

[2] = test system: mouse models of obesity and steatosis; details: cited from earlier work
[3] = test system: Patients with a clinical diagnosis of non-alcoholic hepatic steatosis; experiment: Ultrasound examination of the liver (steatosis hepatis grade), phase II clinical trial; type: in vivo, human
Protocol: as §1, §2
The ultrasound examination was performed at V1 or within 4 weeks before and 1 week after V1 and at V6.
The liver was scored by the most affected area.

[4] = test system: experimental alcoholic steatohepatitis; details: preventive administration; compared to UDCA; Belonovskaya et al. (2013); cited from earlier work
[5] = test system: acyl coenzyme A synthetase; details: in contrast to UDCA; cited from earlier work
[6] = test system: Patients with a clinical diagnosis of non-alcoholic hepatic steatosis; experiment: Cytokeratin 18 (M30, M65 fragments) in the course of the study; type: in vivo, human; details: for mean value of Cytokeratin 18 (M30 fragment) / mean value of Cytokeratin 18 (M65 fragment): V2 baseline
From the text: In another embodiment, the patient to be treated has a serum level of cytokeratin 18 (M65) of less than 750 U/ml, or less than 600 U/ml, or less than 500 U/ml, or less than 400 U/ml, or less than 300 U/ml or even less than 250 U/ml. The level of the M65 fragment of cytokeratin-18 can be determined by known methods, e.g. by an enzyme-linked immunosorbent assay (ELISA)
In another embodiment, the patient to be treated has a serum level of cytokeratin 18 (M30) of less than 500 U/ml, or less than 400 U/ml, or less than 300 U/ml, or less than 200 U/ml, or less than 150 U/ml. The level of the M30 fragment of cytokeratin-18 can be determined by known methods, e.g. by an ELISA.
as §1, §2

[7] = N500 (500 mg Nor-UDCA per day), V1 screening
[8] = N500 (500 mg Nor-UDCA per day), V6-LOCF week 12
[9] = N1500 (1,500 mg Nor-UDCA per day), V1 screening
[10] = N1500 (1,500 mg Nor-UDCA per day), V6-LOCF week 12
[11] = N500 (500 mg Nor-UDCA per day), V6 week 12
[12] = N1500 (1,500 mg Nor-UDCA per day), V6 week 12

In the case of `CC(CC(=O)O)[C@H]1CCC2[C@H]3C(CC[C@@]21C)[C@@]1(C)CCC(O)C[C@H]1C[C@@H]3O` (stereo partly shown) [Nor-UDCA, 24-nor-ursodeoxycholic acid], the “Number (%) of patients, liver stiffness Stage 0/1” value [1, 7] is reported as 62.5%, the “Number (%) of patients, liver stiffness Stage = 4” value [1, 7] is reported as 12.5% and the “Number (%) of patients, liver stiffness Stage ≥2” value [1, 7] is reported as 14.6%. The “Number (%) of patients, liver stiffness Stage ≥3” value [1, 7] was 10.4%, the “Number (%) of patients, liver stiffness Stage 0/1” value [1, 8] was 58.3% and the “Number (%) of patients, liver stiffness Stage = 4” value [1, 8] was 10.4%. The “Number (%) of patients, liver stiffness Stage ≥2” value [1, 8] was 22.9%, the “Number (%) of patients, liver stiffness Stage ≥3” value [1, 8] was 8.3% and the “Number (%) of patients, liver stiffness Stage 0/1” value [1, 9] was 55.6%. For the same molecule, the “Number (%) of patients, liver stiffness Stage = 4” value [1, 9] was 19.4%, the “Number (%) of patients, liver stiffness Stage ≥2” value [1, 9] was 17.6% and the “Number (%) of patients, liver stiffness Stage ≥3” value [1, 9] was 8.3%. The “Number (%) of patients, liver stiffness Stage 0/1” value [1, 10] was 67.5%, the “Number (%) of patients, liver stiffness Stage = 4” value [1, 10] was 15.0% and the “Number (%) of patients, liver stiffness Stage ≥2” value [1, 10] was 12.5%. The “Number (%) of patients, liver stiffness Stage ≥3” value [1, 10] was 5.0%, the “percentage of patients with stage 0/1 liver stiffness, change in the course of the study” value ([1]; group receiving 500 mg Nor-UDCA) was “decreased” and the “reduction in ALT” value ([2]; mouse model of obesity and steatosis, Steinacher et al. (2015)) was “significant reduction”. The “reduction in ALT” value ([2]; mouse models of obesity and steatosis, Steinacher et al. (2017)) was “considerable reduction”, the “Number (%) of patients, steatosis hepatis grade Mild steatosis (S1)” value (“Number (%) of patients … (S1)” below) [3, 7] was 21.2% and the “Number (%) of patients, steatosis hepatis grade Moderate steatosis (S2)” value (from here on “Number (%) of patients … (S2)”) [3, 7] was 45.5%. For the same molecule, the “Number (%) of patients, steatosis hepatis grade No/minimal steatosis (S0)” value [3, 7] was 6.1%, the “Number (%) of patients, steatosis hepatis grade Severe steatosis (S3)” value (shortened to “Number (%) of patients … (S3)”) [3, 7] was 27.3% and the “Number (%) of patients … (S1)” value [3, 11] was 28.8%. The “Number (%) of patients … (S2)” value [3, 11] was 51.5%, the “Number (%) of patients, steatosis hepatis grade No/minimal steatosis (S0)” value [3, 11] was 3.0% and the “Number (%) of patients … (S3)” value [3, 11] was 16.7%. For the same molecule, the “Number (%) of patients … (S1)” value [3, 9] was 26.6%, the “Number (%) of patients … (S2)” value [3, 9] was 53.1% and the “Number (%) of patients, steatosis hepatis grade No/minimal steatosis (S0)” value [3, 9] was 0.0%. For the same molecule, the “Number (%) of patients … (S3)” value [3, 9] was 20.3%, the “Number (%) of patients … (S1)” value [3, 12] was 26.6% and the “Number (%) of patients … (S2)” value [3, 12] was 62.5%. For the same molecule, the “Number (%) of patients, steatosis hepatis grade No/minimal steatosis (S0)” value [3, 12] was 0.0%, the “Number (%) of patients … (S3)” value [3, 12] was 10.9% and the “preventing the accumulation of triglycerides in the liver” value [4] was “most effective”. For the same molecule, the “N-acyl amidation with taurine or glycine” value [5] was “only minimal”, the “substrate for acyl coenzyme A synthetase” value [5] was “poor substrate” and the “change of mean Cytokeratin 18 (M30 fragment) during the study” value ([6]; N500 (500 mg/day)) was −34.4 U/I. For the same molecule, the “change of mean Cytokeratin 18 (M65 fragment) during the study” value ([6]; N500 (500 mg/day)) was −106.0 U/I, the “mean value of Cytokeratin 18 (M30 fragment)” value ([6]; N500 (500 mg/day)) was 389.4 U/I and the “mean value of Cytokeratin 18 (M65 fragment)” value ([6]; N500 (500 mg/day)) was 590.2 U/I. The “change of mean Cytokeratin 18 (M30 fragment) during the study” value ([6]; N1500 (1,500 mg/day)) was −30.3 U/I, the “change of mean Cytokeratin 18 (M65 fragment) during the study” value ([6]; N1500 (1,500 mg/day)) was −80.6 U/I and the “mean value of Cytokeratin 18 (M30 fragment)” value ([6]; N1500 (1,500 mg/day)) was 333.7 U/I. For the same molecule, the “mean value of Cytokeratin 18 (M65 fragment)” value ([6]; N1500 (1,500 mg/day)) was 519.9 U/I.
